# Measured values: US12161637B2, “Anti-cancer gold complex, process of synthesis and method of treatment thereof” (King Saud University, priority 2022, dated 2024)
# Where two headings read alike, the source gives them in different places.
# Columns and labels:
# Assay type in all cases: cell-based
# MCF-7 cells [1] = assay: Oxidative stress analysis (ROS generation), Muse Oxidative Stress Kit, flow cytometry; conditions: 24 h
# Experimental: The induction of oxidative stress via ROS generation endogenously in cancer cells is a potential target of anticancer agents. Oxidative stress causes irreversible cellular damage which induces apoptosis in concentration-dependent manner. MCF-7 cells were plated at 1.5×10^4 cells/well using a 6 well plate to estimate the generation of reactive oxygen species (ROS). […] DMSO was used as a negative control. The final DMSO concentration in each well was less than 0.1%. Then, the cells were harvested and stained with Muse® Oxidative Stress Kit (Luminex, IL, USA) following the manufacture's protocol. The percentage of cells that were undergoing oxidative stress was measured by flow cytometry.
# [2] = test system: MCF-7 breast cancer cell line; assay: Apoptosis analysis, Muse Annexin V Live & Dead Cell Kit, flow cytometry; conditions: 24 h, versus control
# Experimental: MCF-7 cells were seeded in 6 well plates at 1.5×10^4 cells per well. […] DMSO was used as a negative control. The final DMSO concentration in each well was less than 0.1%. The harvested cells were stained with Annexin V-FITC and Dead Cell reagent following the manufacture's protocol. Then, the percentage of apoptotic cells was estimated by flow cytometry.
# MCF-7 cells [3] = assay: Mitochondrial membrane potential analysis, Muse MitoPotential Kit, flow cytometry; conditions: for percentage of depolarized cancer cells (mitochondrial membrane potential): 24 h
# Experimental: Mitochondrial membrane potential is an important parameter to assess the integrity of mitochondria, which is a potential target in cancer therapeutics. The loss of mitochondrial membrane potential has been known to be associated with early stages of apoptosis and reactive oxygen species (ROS) induction. To assess the mitochondrial membrane potential, Muse® MitoPotential Kit (Luminex, IL, USA) was used. MCF-7 cells were seeded in a 6 well plate at 1.5×10^4 cells/well. […] DMSO was used as a negative control. The final DMSO concentration in each well was less than 0.1%. Then, cells were stained with MitoPotential reagents following the manufacture's protocol. The percentage of depolarized/live cells was estimated by flow cytometry.
# [4] = test system: MCF-7 breast cancer cells; assay: Cell viability by MTT assay; conditions: read-out: IC50, cell viability (cytotoxicity)
# Description: Materials and methods: All organic ligands were purchased from Sigma-Aldrich and gold salts from Strom Chemicals USA. Breast cancer cell lines MCF-7 were obtained from American Type Culture Collection, ATCC (Virginia, USA). Dulbecco's Modified Eagle's Medium (DMEM), Fetal Bovine Serum (FBS), and 0.25% Trypsin 0.1% EDTA were obtained from Gibco (Grand Island, NY). The 3-(4,5-dimethylthiazol-2-yl)-2,5-diphenyltetrazolium bromide (MTT) and DMSO were purchased from Sigma-Aldrich (St. Louis, MO).
# Cell viability was determined by 3-(4,5-dimethylthiazol-2-yl)-2,5-diphenyltetrazolium bromide (MTT) assay. Breast cancer cells, MCF-7, were seeded in a 96-well tissue culture plate at 10,000 cells/well in 200 μl of DMEM. […] Then, 20 μl of MTT (5 mg/mL) was added to the each well and incubated in a CO2 incubator at 37° C. in the dark for 3 h. After incubation, a purple-colored formazan dye is produced and appeared as dark crystals in the bottom of the wells. To dissolve the formazan crystals, the culture medium was discarded and 100 μL of isopropanol were added to each well. The absorbance was recorded at 570 nm against reagent blank. The cell viability was calculated by the formula below: Cell viability (%)=[Absorbance Compound/Absorbance DMSO]*100
# [5] = MCF-7, higher concentration (5 μM)
# [6] = MCF-7, lower concentration (1 μM)
SMILES,"ROS generation (MCF-7 cells [1]; MCF-7, 1 μM) [%]","ROS generation (MCF-7 cells [1]; MCF-7, 5 μM) [%]","induction of apoptosis (early and late combined) ([2]; MCF-7, 1 μM) [folds]","induction of apoptosis (early and late combined) ([2]; MCF-7, 3 μM) [folds]","induction of apoptosis (early and late combined) ([2]; MCF-7, 10 μM) [folds]","mitochondrial membrane potential depolarization compared to positive control Sorafenib (MCF-7 cells [3]; MCF-7, 24 h)",percentage of depolarized cancer cells (mitochondrial membrane potential) (MCF-7 cells [3]; [5]) [%],percentage of depolarized cancer cells (mitochondrial membrane potential) (MCF-7 cells [3]; [6]) [%],"IC50 ([4]; MCF-7, 24 h treatment) [nM]","IC50 ([4]; Homo sapiens, MCF7, MCF-7, 24 h treatment) [nM]"
"O=Cc1ccnc(-c2cc(C=O)ccn2)c1.S=C([S][Au+2])N(Cc1ccccc1)Cc1ccccc1 [DDBDG, dibenzyldithiocarbamato-2,2′-bipyridine-4,4′-dicarboxaldehyde gold (III)]",125.53,103.47,2.2,4.4,5.5,roughly three-folds higher,27.8,27.0,875,–
"CNC(=O)c1cc(Oc2ccc(NC(=O)Nc3ccc(Cl)c(C(F)(F)F)c3)cc2)ccn1 [Sorafenib, reference compound]",73.76,122.11,–,–,–,–,12.0,2.7,–,4440
